Laboratory results published in ChEMBL document CHEMBL5584244, “Discovery of novel pyrrolo[2,1-c][1,4]benzodiazepine-3,11-dione (PBD) derivatives as selective HDAC6 inhibitors for the efficient treatment of idiopathic pulmonary fibrosis (IPF) in vitro and in vivo” (Eur J Med Chem, 2024).
The source made the active and inactive calls. The rule behind the calls is not given here.

What was measured:
[1] = molecular target: Mothers against decapentaplegic homolog 3 (Homo sapiens) (UniProt P84022); experiment: Inhibition of TGF-beta1-induced Smad3 protein phosphorylation level in HELF cells incubated for 48 hrs by Western blot analysis; type: cell-based; settings: dose 2.5-10 µM
[2] = molecular target: T1, Protein deacetylase HDAC6 (Homo sapiens, UniProt Q9UBN7); experiment: Inhibition of recombinant human full length HDAC6 using Boc-Lys (Ac)-AMC as substrate incubated for 120 mins by fluorescence analysis
T1 sequence (Q9UBN7 whole entry): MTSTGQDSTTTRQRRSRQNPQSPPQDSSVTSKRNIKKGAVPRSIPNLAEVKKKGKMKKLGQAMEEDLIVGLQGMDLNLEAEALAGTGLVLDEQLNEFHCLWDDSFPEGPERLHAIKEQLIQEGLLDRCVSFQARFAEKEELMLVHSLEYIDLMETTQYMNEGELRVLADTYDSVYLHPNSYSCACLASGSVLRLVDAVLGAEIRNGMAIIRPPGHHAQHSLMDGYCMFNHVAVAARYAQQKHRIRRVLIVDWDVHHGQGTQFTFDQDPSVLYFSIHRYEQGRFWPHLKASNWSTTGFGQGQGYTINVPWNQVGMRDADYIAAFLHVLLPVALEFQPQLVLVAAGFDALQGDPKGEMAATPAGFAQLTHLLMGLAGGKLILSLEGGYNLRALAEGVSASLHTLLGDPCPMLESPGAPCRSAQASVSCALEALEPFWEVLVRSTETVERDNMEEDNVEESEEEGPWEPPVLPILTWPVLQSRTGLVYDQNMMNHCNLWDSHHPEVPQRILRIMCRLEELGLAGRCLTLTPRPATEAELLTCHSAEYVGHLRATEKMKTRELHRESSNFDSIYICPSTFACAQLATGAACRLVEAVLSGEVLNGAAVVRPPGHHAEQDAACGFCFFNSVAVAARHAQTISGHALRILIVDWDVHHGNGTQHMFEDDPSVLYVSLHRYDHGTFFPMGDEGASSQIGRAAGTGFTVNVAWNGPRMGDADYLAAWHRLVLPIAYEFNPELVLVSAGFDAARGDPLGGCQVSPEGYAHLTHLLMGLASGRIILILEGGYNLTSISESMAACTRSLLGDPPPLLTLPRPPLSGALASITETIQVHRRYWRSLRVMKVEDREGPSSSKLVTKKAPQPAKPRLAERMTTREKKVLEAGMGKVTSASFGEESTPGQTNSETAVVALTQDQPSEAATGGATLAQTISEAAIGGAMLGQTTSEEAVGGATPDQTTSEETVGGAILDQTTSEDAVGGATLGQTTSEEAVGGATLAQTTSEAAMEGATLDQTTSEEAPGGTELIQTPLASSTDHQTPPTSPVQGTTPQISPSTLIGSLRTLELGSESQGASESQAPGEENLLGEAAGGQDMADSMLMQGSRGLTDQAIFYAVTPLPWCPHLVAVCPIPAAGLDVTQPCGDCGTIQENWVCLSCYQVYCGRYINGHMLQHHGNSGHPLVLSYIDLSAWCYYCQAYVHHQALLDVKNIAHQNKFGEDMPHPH

[3] = Stability of compound in human plasma assessed as remaining parent compound at 2 uM incubated for 120 mins by LC-MS/MS analysis; type: ADME, cell-free; settings: read-out: Stability
Histone deacetylase 7 = molecular target: T2, Histone deacetylase 7 (Homo sapiens, UniProt Q8WUI4); experiment: Inhibition of N-terminal GST-tagged recombinant human HDAC7 (518 to end residues) expressed in baculovirus expression system using Boc-Lys (Tfa)-AMC as substrate incubated for 120 mins by fluorescence analysis
T2 sequence (Q8WUI4 whole entry): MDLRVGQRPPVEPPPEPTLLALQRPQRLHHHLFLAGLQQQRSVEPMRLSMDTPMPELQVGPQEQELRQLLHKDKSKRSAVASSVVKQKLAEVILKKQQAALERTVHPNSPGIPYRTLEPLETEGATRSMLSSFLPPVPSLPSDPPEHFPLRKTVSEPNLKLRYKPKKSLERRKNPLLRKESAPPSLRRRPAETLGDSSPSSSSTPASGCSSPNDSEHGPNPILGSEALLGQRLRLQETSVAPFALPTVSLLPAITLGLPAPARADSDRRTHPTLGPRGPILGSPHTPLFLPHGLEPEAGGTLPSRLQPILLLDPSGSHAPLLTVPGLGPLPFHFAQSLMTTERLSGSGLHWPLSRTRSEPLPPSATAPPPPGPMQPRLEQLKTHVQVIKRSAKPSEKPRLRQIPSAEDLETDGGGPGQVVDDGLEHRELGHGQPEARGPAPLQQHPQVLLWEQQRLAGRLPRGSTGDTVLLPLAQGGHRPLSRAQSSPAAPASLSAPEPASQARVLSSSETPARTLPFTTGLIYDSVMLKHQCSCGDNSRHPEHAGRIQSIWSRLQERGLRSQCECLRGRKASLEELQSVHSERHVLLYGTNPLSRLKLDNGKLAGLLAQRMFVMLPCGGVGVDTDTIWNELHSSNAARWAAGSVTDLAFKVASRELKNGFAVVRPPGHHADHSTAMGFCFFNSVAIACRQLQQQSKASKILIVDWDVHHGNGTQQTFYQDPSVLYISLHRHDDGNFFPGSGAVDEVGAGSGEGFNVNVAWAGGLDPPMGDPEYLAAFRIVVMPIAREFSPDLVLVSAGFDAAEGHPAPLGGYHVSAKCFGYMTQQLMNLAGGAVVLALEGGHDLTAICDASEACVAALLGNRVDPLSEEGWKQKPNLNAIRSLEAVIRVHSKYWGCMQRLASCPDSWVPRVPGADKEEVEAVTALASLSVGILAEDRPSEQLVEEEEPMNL

Mus musculus = experiment: Anti-pulmonary fibrosis activity in bleomycin-induced C57BL/6 mouse model of pulmonary fibrosis assessed as decrease in collapse of the alveolar cavity in lung at 50 to 100 mg/kg, ip for 3 weeks by H and E staining based fluorescence microscopic analysis; type: functional, organism-based; settings: dose 50-100 mg/kg
Homo sapiens = organism: Homo sapiens; experiment: Selectivity index, ratio IC50 for C-terminal His6/Flag-tagged recombinant human full length HDAC1 to IC50 for inhibition of recombinant human full length HDAC6
[4] = molecular target: T3, Protein deacetylase HDAC6 (Homo sapiens) (UniProt Q9UBN7); experiment: Inhibition of HDAC6 in TGF-beta1-induced HELF cells by fluorescence based microplate reader analysis; type: cell-based; settings: dose 2.5-10 µM
T3 sequence (whole entry): T1 sequence (Q9UBN7 whole entry)

Chain of Mothers against decapentaplegic homolog 3 (Homo sapiens) (P84022 2-425 limits assumed): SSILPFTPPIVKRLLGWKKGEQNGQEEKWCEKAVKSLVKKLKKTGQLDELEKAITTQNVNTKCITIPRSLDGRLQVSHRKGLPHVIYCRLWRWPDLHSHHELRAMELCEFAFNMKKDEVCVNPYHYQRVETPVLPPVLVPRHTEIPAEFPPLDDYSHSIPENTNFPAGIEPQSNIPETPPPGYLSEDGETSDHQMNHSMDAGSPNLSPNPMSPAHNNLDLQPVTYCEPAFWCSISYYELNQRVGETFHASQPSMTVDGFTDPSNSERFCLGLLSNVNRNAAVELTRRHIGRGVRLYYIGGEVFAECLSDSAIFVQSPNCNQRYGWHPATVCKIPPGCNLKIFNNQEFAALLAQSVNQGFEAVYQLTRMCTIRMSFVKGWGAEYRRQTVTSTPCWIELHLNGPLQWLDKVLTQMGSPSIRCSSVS

inhibition [1]: Dose-Dependent Effect
IC50 [2]: 8.97 nM
remaining at 2 h, 2 µM [3]: 92.3%
IC50 (Histone deacetylase 7): 8.94 nM
Ratio IC50 (Homo sapiens): 97.9
inhibition [4]: Dose-Dependent Effect
Structure (SMILES): CC(=O)O.O=C(NO)c1ccc(CN2C(=O)[C@@H]3CCCN3Cc3ccccc32)cc1
Activity (Mus musculus): Active
